Each block holds one molecule with its values, some of them ahead of it.
Key:
[1] = target: T1, human IVD (isovaleryl-CoA dehydrogenase) (Homo sapiens, UniProt P26440); experiment: cryo-EM structure; type: binding; conditions: noncovalent cofactor, 4 FAD per tetramer; FAD added to buffer; pH 7.4; 2.55 Å
T1 construct: residues 33-426 (transit peptide removed), N-terminal 8xHis tag, pET-28a, E. coli BL21(DE3)
T1 sequence (P26440 33-426): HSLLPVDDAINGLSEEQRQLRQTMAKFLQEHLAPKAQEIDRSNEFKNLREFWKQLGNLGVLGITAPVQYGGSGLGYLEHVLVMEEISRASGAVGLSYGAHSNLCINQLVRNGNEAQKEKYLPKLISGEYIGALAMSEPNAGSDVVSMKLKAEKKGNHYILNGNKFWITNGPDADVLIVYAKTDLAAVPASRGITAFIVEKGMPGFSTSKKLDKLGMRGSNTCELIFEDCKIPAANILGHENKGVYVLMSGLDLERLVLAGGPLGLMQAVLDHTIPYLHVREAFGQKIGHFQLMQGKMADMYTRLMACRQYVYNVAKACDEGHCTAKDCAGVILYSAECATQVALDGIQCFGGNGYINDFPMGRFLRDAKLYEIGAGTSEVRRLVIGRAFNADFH

[2] = target: T2, human IVD (isovaleryl-CoA dehydrogenase) (Homo sapiens, UniProt P26440, E286A); experiment: surface plasmon resonance; type: binding; conditions: read-out: KDapp
T2 construct: residues 33-426 (transit peptide removed), N-terminal 8xHis tag, pET-28a, E. coli BL21(DE3)
T2 sequence (P26440 33-426 E286A): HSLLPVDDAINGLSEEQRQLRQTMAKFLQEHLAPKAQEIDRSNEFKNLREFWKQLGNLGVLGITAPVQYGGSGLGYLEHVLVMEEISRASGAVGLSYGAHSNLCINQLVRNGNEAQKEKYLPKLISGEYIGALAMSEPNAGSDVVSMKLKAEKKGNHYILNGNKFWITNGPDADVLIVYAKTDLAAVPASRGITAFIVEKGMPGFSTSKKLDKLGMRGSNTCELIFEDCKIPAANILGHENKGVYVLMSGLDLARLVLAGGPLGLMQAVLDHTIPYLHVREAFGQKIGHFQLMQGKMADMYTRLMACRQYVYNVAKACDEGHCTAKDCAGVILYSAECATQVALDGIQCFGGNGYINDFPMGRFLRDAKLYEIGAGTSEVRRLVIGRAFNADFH

[3] = target: T3, Isovaleryl-CoA dehydrogenase (IVD), human, wild type, residues 33-426 (human), P26440; experiment: cryo-EM structure; purified IVD from SEC in 50 mM tris-HCl pH 7.4, 150 mM NaCl with added FAD; no acyl-CoA; 2.55 Å; conditions: remark: other sources report otherwise
T3 chain: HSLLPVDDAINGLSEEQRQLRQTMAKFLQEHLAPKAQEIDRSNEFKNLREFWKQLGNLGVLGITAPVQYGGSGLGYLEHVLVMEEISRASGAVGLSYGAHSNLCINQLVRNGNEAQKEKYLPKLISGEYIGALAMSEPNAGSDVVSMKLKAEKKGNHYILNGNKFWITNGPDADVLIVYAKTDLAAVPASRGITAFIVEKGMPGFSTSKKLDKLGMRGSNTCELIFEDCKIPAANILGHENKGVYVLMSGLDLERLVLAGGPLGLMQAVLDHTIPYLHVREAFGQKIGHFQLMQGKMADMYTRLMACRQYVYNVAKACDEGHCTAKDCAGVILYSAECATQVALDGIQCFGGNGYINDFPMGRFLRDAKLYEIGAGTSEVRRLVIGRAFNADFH

[4] = target: the molecule itself; experiment: cryo-EM structure; purified IVD E286A incubated with isovaleryl-CoA or butyryl-CoA at 37 °C for 15 min, FAD bound; 3.35 and 2.91 Å

Molecule: Cc1cc2nc3c(=O)[nH]c(=O)nc-3n(C[C@H](O)[C@H](O)[C@H](O)COP(=O)(O)OP(=O)(O)OC[C@H]3O[C@@H](n4cnc5c(N)ncnc54)[C@H](O)[C@@H]3O)c2cc1C [FAD]
- cryo-EM structure [1]: resolved in the form of only combining with FAD molecules

- Kd [2]: 848 nM
Molecule: CC(C)CC(=O)SCCNC(=O)CCNC(=O)[C@H](O)C(C)(C)COP(=O)(O)OP(=O)(O)OC[C@H]1O[C@@H](n2cnc3c(N)ncnc32)[C@H](O)[C@@H]1OP(=O)(O)O [isovaleryl-CoA]

- Kd [2]: 494 nM
Molecule: CCCC(=O)SCCNC(=O)CCNC(=O)[C@H](O)C(C)(C)COP(=O)(O)OP(=O)(O)OC[C@H]1O[C@@H](n2cnc3c(N)ncnc32)[C@H](O)[C@@H]1OP(=O)(O)O [butyryl-CoA]

- stoichiometry N [3]: 4
B1: Isovaleryl-CoA dehydrogenase (IVD), human, wild type, residues 33-426, P26440 33-426 (enzyme)
chain: HSLLPVDDAINGLSEEQRQLRQTMAKFLQEHLAPKAQEIDRSNEFKNLREFWKQLGNLGVLGITAPVQYGGSGLGYLEHVLVMEEISRASGAVGLSYGAHSNLCINQLVRNGNEAQKEKYLPKLISGEYIGALAMSEPNAGSDVVSMKLKAEKKGNHYILNGNKFWITNGPDADVLIVYAKTDLAAVPASRGITAFIVEKGMPGFSTSKKLDKLGMRGSNTCELIFEDCKIPAANILGHENKGVYVLMSGLDLERLVLAGGPLGLMQAVLDHTIPYLHVREAFGQKIGHFQLMQGKMADMYTRLMACRQYVYNVAKACDEGHCTAKDCAGVILYSAECATQVALDGIQCFGGNGYINDFPMGRFLRDAKLYEIGAGTSEVRRLVIGRAFNADFH

B2: Isovaleryl-CoA dehydrogenase (IVD), human, E286A mutant, residues 33-426 (enzyme, UniProt P26440 33-426, looked up)
chain: HSLLPVDDAINGLSEEQRQLRQTMAKFLQEHLAPKAQEIDRSNEFKNLREFWKQLGNLGVLGITAPVQYGGSGLGYLEHVLVMEEISRASGAVGLSYGAHSNLCINQLVRNGNEAQKEKYLPKLISGEYIGALAMSEPNAGSDVVSMKLKAEKKGNHYILNGNKFWITNGPDADVLIVYAKTDLAAVPASRGITAFIVEKGMPGFSTSKKLDKLGMRGSNTCELIFEDCKIPAANILGHENKGVYVLMSGLDLARLVLAGGPLGLMQAVLDHTIPYLHVREAFGQKIGHFQLMQGKMADMYTRLMACRQYVYNVAKACDEGHCTAKDCAGVILYSAECATQVALDGIQCFGGNGYINDFPMGRFLRDAKLYEIGAGTSEVRRLVIGRAFNADFH
notes: human isovaleryl-CoA dehydrogenase (IVD), residues 33 to 426, catalytic-base mutant made by PCR on the WT plasmid; Used for the cryo-EM structures with isovaleryl-CoA and butyryl-CoA; also called IVD E286A; source: E. coli BL21 (DE3), purified (Ni-NTA, SEC on Superdex 200)
- binding result [4]: binds

From publication PMC12369846, “Structural Insights into Isovaleryl-Coenzyme A Dehydrogenase: Mechanisms of Substrate Specificity and Implications of Isovaleric Acidemia-Associated Mutations” (Research, 2025)
